The results in this text go back to patent US20220241314A1, “COMPOSITIONS AND METHODS FOR TREATMENT OF HEPATITIS B VIRUS INFECTION” (priority 2019, published 2022).

Read-outs that look alike come from different tables or passages of the source. {ppp} = triphosphate

Series [1] relates to HBV cccDNA. Description: HBV cccDNA formation in infected differentiated HepaRG cells (Southern blot, RT-qPCR). The class given is cell-based, HBV (Genotype D). The note with it: HBV 1000 Geq/cell, harvested 3 dpi; for IC50: read-out: IC50, decline of cccDNA relative to DMSO treated controls; for IC90: read-out: IC90, decline of cccDNA relative to DMSO treated controls. As for the experimental part: The scheme illustrates the schedule with HBV inoculum (1000 Geq/cell) and administration of Cyclosporin A (CsA), F7, X-RNA and poly-U/UC PAMP. 2.5% DMSO was added to the medium at 1 day post infection (Dpi). cccDNA and PF RC DNA were harvested from HepG2-hNTCP cells using Hirt extraction method and analyzed by Southern blot analysis using an HBV-specific DNA probe. Viral protein-free DNAs (protein-free Relaxed Circular DNA [PF-RC DNA] and cccDNA) are noted. (2B and 2C) HepG2-hNTCP 2(B) or differentiated HepaRG cells (2C) were infected with HBV at moi of 1000 Geq/cell, and administered CsA (10 μM) or F7, in the indicated concentrations. For upper panels of (2B) and (2C), DNAs were isolated after Hirt extraction at 3 dpi and subjected to Southern blot analysis using as HBV-DNA probe. […] (2D and 2E) HepG2-hNTCP (2D) or dHepaRG cells (2E) were infected with HBV at an moi of 1000 Geq/cell, and administered CsA (10 μM), X-RNA (100 ng/ml), or poly-U/UC PAMP in the indicated concentrations. For upper panels of (2D) and (2E), DNAs were analyzed using Southern blot analysis. For lower panels of (2D) and (2E), DNAs were analyzed by RT-qPCR. IC90, and IC50 values were calculated based on the decline of the cccDNA relative to DMSO treated controls. IC90, and IC50 values are the average of three experiments±one standard deviation. […] Positions of mass markers are indicated on each Southern blot.
HBV infection HBV (Genotype D) was purified from the supernatant of HepAD38 cells by PEG concentration and subsequent sucrose gradient, as described previously (Ko, C., et al. (2014). DDX3 DEAD-Box RNA Helicase Is a Host Factor That Restricts Hepatitis B Virus Replication at the Transcriptional Level. Journal of Virology 88, 13689-13698; Watashi, K., et al. (2013), supra). For HBV infection cells were seeded into collagen-coated plates. One day later, the cells were infected with HBV in DMEM containing 4% polyethylene glycol 8000 (PEG-8000). The multiplicities of infection (expressed as virus genome equivalent/cell) are indicated in each Figure Legend. The inocula were removed 24 hours later, and the infected cultures were maintained in complete DMEM containing 2.5% DMSO until harvesting, as described previously (Ni, Y., et al. (2014). Hepatitis B and D viruses exploit sodium taurocholate co-transporting polypeptide for species-specific entry into hepatocytes. Gastroenterology 146, 1070-1083).
Reverse transcription quantitative real time qPCR (RT-qPCR) analysis: Total cellular RNAs were extracted from cells using TRIZOL reagent and the manufacturers protocol (Invitrogen). cDNA was synthesized from the purified RNA by both random and oligo (dT) priming using iScript select cDNA synthesis kit (Biorad, Inc.). […]

A short description of series [2]: in vitro. Conditions: human.
Experimental: HepG2-NTCP Cells (10A and 10C), dHepaRG (10B and 10D), and PHH (10E) were treated with increasing doses of F7 or poly-U/UC PAMP for 72 hours. Cell viability was determined concurrently by measuring ATP content, with values normalized to mock-treated cells. Graph represents the mean of triplicated samples in each of 3 independent experiments, with error bars showing standard deviation.ns=non-significant.
To determine the values of 90% of maximal Inhibitory concentration (IC90) and half-maximal Inhibitory concentration (IC50), as well as the cytotoxic concentration, CC50, of F7 and poly-U/UC, PAMP, two different cell lines were used, HepG2-hNTCP and dHepaRG cells.
Cytotoxicity assays: Cytotoxicity was evaluated from cultures of HepG2-C3A -hNTCP and dHepaRG cells using CellTiter-Glo as described (Edwards, T. C., et al. (2019). Inhibition of HBV replication by N-hydroxvisoquinolinedione and N-hydroxypyridinedinone ribonuclease H inhibitors. Antiviral research 164, 70-80). […] Cytotoxicity of each was measured with the ATP content as a measure of cell viability using the CellTiter-Glo™ reagent (Promega) per manufacturer's instructions. The plates were read using a luminescence plate reader (Berthold) and the relative luminescence unit (RLU) data generated from each well was calculated as percent signal compared to the untreated control. […]
[3] abbreviates: Hepatitis B virus, differentiated HepaRG cells.

Take `O=C(Nc1ccc2nc(NC(=O)c3ccc4ccccc4c3)sc2c1)c1ccccc1` [F7, N-(6-benzamido-1,3-benzothiazol-2-yl)naphthalene-2-carboxamide]: in series [1] (setting [3]), the IC50 is around 3.38 µM and the IC90 is around 12.8 µM. Further, the CC50 at 72 h in series [2] was above 40 µM.

B1: poly-U/UC PAMP: ~100 nt PAMP motif from the HCV genome comprising 5′ppp and the poly U/UC region, recognized by RIG-I; formulated in liposome (nucleic acid)
chain: GGCCAUCCUGUUUUUUUCCCUUUUUUUUUUUCUUUUUUUUUUUUUUUUUUUUUUUUUUUUUUUUUUCUCCUUUUUUUUUCCUCUUUUUUUCCUUUUCUUUCCUUU
modifications: RNA, 5' {ppp}, backbone and methylation of C not given here; formulated in liposome
notes: ~100 nt PAMP motif from the HCV genome comprising 5′ppp and the poly U/UC region, recognized by RIG-I; formulated in liposome
Regarding B1, in series [1] (dHepaRG cells), the IC50 is around 0.00161 µM and the IC90 is around 0.0033 µM.
